Experimental findings from US20150080438A1, “6,7-Dihydro-5H-benzo[7]annulene derivatives, processes for their preparation, pharmaceutical products comprising them and their use for preparing medicaments” (Bayer Intellectual Property GmbH, priority 2011, published 2015) are described below.

The test system of data set [1] is ovarian estradiol synthesis. The experiment in a line: Stimulation of ovarian oestrogen synthesis (HPG axis) in hormonally intact adult rats. The data set is classed as in vivo, rat. The settings on record: 3 mg/kg daily for 10 days, quotient of peripheral estradiol values after and before treatment. An excerpt:
The clinical use both of pure anti-oestrogens and of various SERMs for the treatment of premenopausal women is limited by their property of stimulating the ovaries through activation of the hypothalamic-pituitary-gonadal axis (HPG axis), which leads to the increase in peripheral estradiol levels (Palomba, S., Orio, F., Jr., Morelli, M., Russo, T., Pellicano, M., Zupi, E., Lombardi, G., Nappi, C., Panici, P. L., and Zullo, F. (2002). Raloxifene administration in premenopausal women with uterine leiomyomas: a pilot study. J Clin Endocrinol Metab 87, 3603-3608). This stimulation of the HPG axis is associated with penetration of the blood-brain barrier and penetration of the brain. To investigate the ovary-stimulating properties of the claimed pharmacological compounds, hormonally intact adult rats were treated with the substances daily for a period of 10 days. The study end point is the quotient of peripheral estradiol values after and before treatment.
Selected claimed pharmacological substances were investigated as described for their stimulating action on the HPG axis or ovarian estradiol synthesis. The selected substances show markedly less stimulation of the ovaries than the control compound raloxifene at equal dosages (cf. Table 5).

The subject of data set [2] is uterus growth induced by 17β-estradiol. In words: Anti-uterus growth test in the adult rat. The settings on record: ovariectomized adult rat, percentage inhibition of uterus growth; for Anti-oestrogenic activity in vivo in % at a dose of 1 mg/kg (rat): 1 mg/kg s.c. d1-d3 with 1.5 μg/kg/day 17β-estradiol; for inhibition in vivo at 0.3 mg/kg: sc, 0.3 mg/kg s.c. d1-d3 with 1.5 μg/kg/day 17β-estradiol, read-out: Anti-oestrogenic activity in vivo in % at a dose of 0.3 mg/kg (rat). Format: in vivo. An excerpt:
The uterus of oestrogen-substituted rats can be used as a test model for detecting a direct action of substances with anti-oestrogenic properties. The parameter of oestrogenic action is estradiol-induced uterus growth in rats, which is inhibited by simultaneous administration of a substance with anti-oestrogenic action. The experimental animals (n=5-6 animals/group) were ovariectomized before the start of the test, to rule out the influence of endogenous oestrogens. After a phase of 6 to 10 days, the test substances are administered s.c. on 3 consecutive days (d1-d3) in combination with a substitution dose of 1.5 μg/kg/day of 17β-estradiol. 17β-estradiol alone serves as positive control, and the excipients serve as negative control. On day 4 (d4) the animals are killed, and the uteri and vaginae are removed and weighed. The organ weights are converted to mg/100 g body weight, then the mean value and the standard deviation are calculated for each dosage. The inhibition of uterus or vaginal growth induced by 17β-estradiol is shown as percentage inhibition. The selected claimed substances were investigated in adult female rats as described for their anti-oestrogenic, inhibitory action on the weight of the uterus. At the dosage used, the substances show a marked anti-oestrogenic action in vivo (Table 3 and Table 4).

The target in the next data set is T1, oestrogen receptor (ER) (Homo sapiens, UniProt P03372).
T1 construct: These MVLN cells express, along with the functional oestrogen receptor (ER), a reporter construct; endogenous in cells; host or cells: MVLN cells (MCF7 derivative with ER-responsive luciferase reporter)
T1 sequence (P03372 1-595): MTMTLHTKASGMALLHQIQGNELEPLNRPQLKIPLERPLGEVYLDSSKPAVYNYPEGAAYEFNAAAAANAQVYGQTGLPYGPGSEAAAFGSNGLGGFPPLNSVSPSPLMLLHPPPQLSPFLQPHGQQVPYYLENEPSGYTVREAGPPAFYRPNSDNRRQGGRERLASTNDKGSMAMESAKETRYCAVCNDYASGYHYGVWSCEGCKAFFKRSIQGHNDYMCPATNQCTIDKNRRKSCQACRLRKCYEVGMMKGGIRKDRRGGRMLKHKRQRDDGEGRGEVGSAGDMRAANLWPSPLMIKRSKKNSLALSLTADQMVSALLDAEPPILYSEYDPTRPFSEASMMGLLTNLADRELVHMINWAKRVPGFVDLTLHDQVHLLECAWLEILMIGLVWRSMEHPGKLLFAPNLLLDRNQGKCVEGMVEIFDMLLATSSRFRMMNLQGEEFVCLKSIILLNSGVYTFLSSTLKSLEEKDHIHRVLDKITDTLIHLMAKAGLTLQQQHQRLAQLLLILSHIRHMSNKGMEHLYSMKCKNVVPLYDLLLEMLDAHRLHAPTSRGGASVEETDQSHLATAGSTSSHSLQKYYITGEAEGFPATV
The experiment in a line: Anti-oestrogenic action in MVLN cells (inhibition of estradiol-induced luciferase, transactivation antagonism). The settings on record: inhibition of estradiol-induced luciferase activity, read-out: Anti-oestrogenic action in vitro: MVLN transactivation antagonism IC50. Format: cell-based. The method, boiled down: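 MCF7-derived MVLN cells carrying an ER-driven luciferase reporter; test compounds applied with estradiol, and anti-oestrogenic action scored as inhibition of the estradiol-induced luciferase signal.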

Structures can show the parent of a compound that is named as a salt.

`CN(CCCCCC1=C(c2ccccc2)CCCc2cc(O)ccc21)CCC[S+]([O-])CCCC(F)(F)C(F)(F)F` (racemic) [Example 2, 9-[5-(Methyl{3-[(RS)-(4,4,5,5,5-pentafluoropentyl)sulphinyl]propyl}amino)pentyl]-8-phenyl-6,7-dihydro-5H-benzo[7]annulen-3-ol]: the “Stimulation of ovarian oestrogen synthesis: factor at a dose of 3 mg/kg rat” value (from here on “Stimulation”) in data set [1] amounted to 1.8. Further, in data set [2], the “Anti-oestrogenic activity in vivo in % at a dose of 1 mg/kg (rat)” value (“Anti-oestrogenic activity in vivo in %” below) is 94% and the inhibition in vivo at 0.3 mg/kg is 51%. In addition, on oestrogen receptor (ER), the IC50 (usually the concentration needed to halve the response being measured) stood at 8 nM.

`CN(CCCCCC1=C(c2ccc(S(C)(=O)=O)cc2)CCCc2cc(O)ccc21)CCC[S+]([O-])CCCC(F)(F)C(F)(F)F` (racemic) [Example 46, 8-(4-Mesylphenyl)-9-[5-(methyl{3-[(RS)-(4,4,5,5,5-pentafluoropentyl)sulphinyl]propyl}amino)pentyl]-6,7-dihydro-5H-benzo[7]annulen-3-ol]: the “Anti-oestrogenic activity in vivo in %” value in data set [2] is given as 31%. Also, the IC50 on oestrogen receptor (ER) stood at 14 nM.

Regarding `CN(CCCCCCC1=C(c2ccccc2)CCCc2cc(O)ccc21)CCC[S+]([O-])CCCC(F)(F)C(F)(F)F` (racemic) [Example 64, 9-[6-(Methyl{3-[(RS)-(4,4,5,5,5-pentafluoropentyl)sulphinyl]propyl}amino)hexyl]-8-phenyl-6,7-dihydro-5H-benzo[7]annulen-3-ol], the inhibition in vivo at 0.3 mg/kg in data set [2] was 85%. For the same molecule, the IC50 at oestrogen receptor (ER) worked out at 5 nM.

For the molecule `CN(CCCCCC1=C(c2ccccc2)CCCc2cc(O)ccc21)CCCSCCCC(F)(F)C(F)(F)F` [Example 1, 9-[5-(Methyl{3-[(4,4,5,5,5-pentafluoropentyl)sulphanyl]propyl}amino)pentyl]-8-phenyl-6,7-dihydro-5H-benzo[7]annulen-3-ol], the “Anti-oestrogenic activity in vivo in %” value in data set [2] came out at 65%. In addition, the IC50 at oestrogen receptor (ER) turned out to be 37 nM.

For the molecule `CN(CCCCCC1=C(c2ccccc2)CCCc2cc(O)ccc21)CCCS(=O)(=O)CCCC(F)(F)C(F)(F)F` [Example 3, 9-[5-(Methyl{3-[(4,4,5,5,5-pentafluoropentyl)sulphonyl]propyl}amino)pentyl]-8-phenyl-6,7-dihydro-5H-benzo[7]annulen-3-ol], in data set [2], the “Anti-oestrogenic activity in vivo in %” value came out at 64%. The IC50 on oestrogen receptor (ER) amounted to 15 nM.

As for `CN(CCCCCC1=C(c2cccc(O)c2)CCCc2cc(O)ccc21)CCCCS(=O)(=O)CCCC(F)(F)C(F)(F)F` [Example 7, 8-(3-Hydroxyphenyl)-9-[5-(methyl{4-[(4,4,5,5,5-pentafluoropentyl)sulphonyl]butyl}amino)pentyl]-6,7-dihydro-5H-benzo[7]annulen-3-ol], the “Stimulation” value in data set [1] is recorded as 1.8. Further, the inhibition in vivo at 0.3 mg/kg in data set [2] is 31%. Further, the IC50 on oestrogen receptor (ER) turned out to be 5 nM.

For `CN(CCCCCCC1=C(c2cccc(O)c2)CCCc2cc(O)ccc21)CCCS(=O)(=O)CCCC(F)(F)C(F)(F)F` [Example 13, 8-(3-Hydroxyphenyl)-9-[6-(methyl{3-[(4,4,5,5,5-pentafluoropentyl)sulphonyl]propyl}amino)hexyl]-6,7-dihydro-5H-benzo[7]annulen-3-ol], the inhibition in vivo at 0.3 mg/kg in data set [2] is 79%. Besides, on oestrogen receptor (ER), the IC50 was found to be 3 nM.

As for `CN(CCCCCCC1=C(c2cccc(O)c2)CCCc2cc(O)ccc21)CCCCCCS(=O)(=O)CCCC(F)(F)C(F)(F)F` [Example 19, 8-(3-Hydroxyphenyl)-9-[6-(methyl{6-[(4,4,5,5,5-pentafluoropentyl)sulphonyl]hexyl}amino)hexyl]-6,7-dihydro-5H-benzo[7]annulen-3-ol], the inhibition in vivo at 0.3 mg/kg in data set [2] stood at 38%. On oestrogen receptor (ER), the IC50 is 5 nM.

Regarding `CN(CCCCCCC1=C(c2cc(O)ccc2F)CCCc2cc(O)ccc21)CCCS(=O)(=O)CCCC(F)(F)C(F)(F)F` [Example 23, 8-(2-Fluoro-5-hydroxyphenyl)-9-[6-(methyl{3-[(4,4,5,5,5-pentafluoropentyl)sulphonyl]propyl}amino)hexyl]-6,7-dihydro-5H-benzo[7]annulen-3-ol], in data set [2], the inhibition in vivo at 0.3 mg/kg came to 77%. The IC50 at oestrogen receptor (ER) is 2 nM.

Regarding `CN(CCCCCCC1=C(c2ccc(F)c(O)c2)CCCc2c1ccc(O)c2Cl)CCCS(=O)(=O)CCCC(F)(F)C(F)(F)F` [Example 24, 4-Chloro-8-(4-fluoro-3-hydroxyphenyl)-9-[6-(methyl{3-[(4,4,5,5,5-pentafluoropentyl)sulphonyl]propyl}amino)hexyl]-6,7-dihydro-5H-benzo[7]annulen-3-ol], the inhibition in vivo at 0.3 mg/kg in data set [2] turned out to be 14%. In addition, the IC50 on oestrogen receptor (ER) came out at 13 nM.

Take `CN(CCCCCCC1=C(c2cccnc2)CCCc2cc(O)ccc21)CCCS(=O)(=O)CCCC(F)(F)C(F)(F)F` [Example 44, 9-[6-(Methyl{3-[(4,4,5,5,5-pentafluoropentyl)sulphonyl]propyl}amino)hexyl]-8-(3-pyridyl)-6,7-dihydro-5H-benzo[7]annulen-3-ol]: the inhibition in vivo at 0.3 mg/kg in data set [2] came out at 32%. Moreover, the IC50 on oestrogen receptor (ER) worked out at 7 nM.

Consider `CN(CCCCCCC1=C(c2ccc(S(C)(=O)=O)cc2)CCCc2cc(O)ccc21)CCCS(=O)(=O)CCCC(F)(F)C(F)(F)F` [Example 49, 8-(4-Mesylphenyl)-9-[6-(methyl{3-[(4,4,5,5,5-pentafluoropentyl)sulphonyl]propyl}amino)hexyl]-6,7-dihydro-5H-benzo[7]annulen-3-ol], for which the inhibition in vivo at 0.3 mg/kg in data set [2] worked out at 72%. Also, at oestrogen receptor (ER), the IC50 was 3 nM.

As for `CN(CCCCCCC1=C(c2cccc(O)c2)CCCc2cc(O)ccc21)CCCS(=O)(=O)CCCC(F)(F)F` [Example 51, 8-(3-Hydroxyphenyl)-9-[6-(methyl{3-[(4,4,4-trifluorobutyl)sulphonyl]propyl}amino)hexyl]-6,7-dihydro-5H-benzo[7]annulen-3-ol], the inhibition in vivo at 0.3 mg/kg in data set [2] is 62%. The IC50 on oestrogen receptor (ER) came to 2 nM.

For `CN(CCCCCCC1=C(c2cccc(O)c2)CCCc2cc(O)ccc21)CCCS(=O)(=O)CCC(F)(F)F` [Example 56, 8-(3-Hydroxyphenyl)-9-[6-(methyl{3-[(3,3,3-trifluoropropyl)sulphonyl]propyl}amino)hexyl]-6,7-dihydro-5H-benzo[7]annulen-3-ol], the inhibition in vivo at 0.3 mg/kg in data set [2] stood at 33%. For the same molecule, the IC50 on oestrogen receptor (ER) turned out to be 3 nM.

With `CN(CCCCCCC1=C(c2ccccc2)CCCc2cc(O)ccc21)CCCCS(=O)(=O)CCCC(F)(F)F` [Example 58, 9-[6-(Methyl{4-[(4,4,4-trifluorobutyl)sulphonyl]butyl}amino)hexyl]-8-phenyl-6,7-dihydro-5H-benzo[7]annulen-3-ol], in data set [2], the inhibition in vivo at 0.3 mg/kg is 88%. For the same molecule, the IC50 on oestrogen receptor (ER) worked out at 3 nM.

With `CN(CCCCCCC1=C(c2ccccc2)CCCc2c1ccc(O)c2Cl)CCCS(=O)(=O)CCCC(F)(F)C(F)(F)F` [Example 102, 4-Chloro-9-[6-(methyl{3-[(4,4,5,5,5-pentafluoropentyl)sulphonyl]propyl}amino)hexyl]-8-phenyl-6,7-dihydro-5H-benzo[7]annulen-3-ol], the inhibition in vivo at 0.3 mg/kg in data set [2] was determined as 24%. The half-maximal inhibitory concentration (IC50) on oestrogen receptor (ER) is 32 nM.

Take `O=C(c1ccc(OCCN2CCCCC2)cc1)c1c(-c2ccc(O)cc2)sc2cc(O)ccc12` [raloxifene hydrochloride, raloxifene, reference compound]: the “Stimulation” value in data set [1] stood at 3.1.
